In US8598161B2, “Compounds for the reduction of beta-amyloid production” (Bristol-Myers Squibb Company, priority 2011, dated 2013):

These molecules were tested on Aβ42 production in H4 APP751 SWE clone 8.20 cells (assay: Cellular assay for inhibition of Aβ1-42 production). Conditions: H4 cells stably transfected with APP751 Swedish mutation (clone 8.20), 19 h incubation.
Assay type: cell-based
Description: H4 cells stably transfected with APP751 containing the Swedish mutation (H4 APP751 SWE clone 8.20, developed at BMS) were maintained in log phase through twice weekly passage at a 1:20 split. […] Following incubation for 19 h in 5% CO2 at 37° C., plates were briefly centrifuged (1000 rpm, 5 min). A 10 μl aliquot from each well was transferred to a second assay plate (Costar 3709) for Aβ40 measurements. Antibody cocktails were freshly prepared by dilution into 40 mM Tris-HCl (pH 7.4) with 0.2% BSA and added to assay plates. For Aβ42 measurements, antibodies specific for the Aβ42 neoepitope (565, developed at BMS; conjugated to the Wallac reagent (Perkin Elmer)) and the N-terminal sequence of Aβ peptide (26D6, developed at SIBIA; conjugated to APC (Perkin Elmer)) were mixed and 20 μl of the mixture was added to each well of the incubated cell plate yielding a final concentration of 0.8 ng/well 565 and 75 ng/well 26D6. […] Assay plates containing antibodies were sealed with aluminum foil and incubated overnight at 4° C. Signal was determined using a Viewlux counter (Perkin Elmer) and IC50 values determined using curve fitting in CurveMaster (Excel Fit based).

SMILES	IC50 [nM]
CC#Cc1cncc(-c2cc([C@@]34N=C(N)SC[C@@H]3CCO4)c(F)cc2F)c1 (racemic) [Example 8, (±)-(4aR,7aR)-7a-(2,4-difluoro-5-(5-(prop-1-ynyl)pyridin-3-yl)phenyl)-4a,5,6,7a-tetrahydro-4H-furo[2,3-d][1,3]thiazin-2-amine]	924
NC1=N[C@@]2(c3cc(-c4cncnc4)c(F)cc3F)OCCC[C@H]2CS1 [Example 11, (4aR,8aR)-8a-(2,4-difluoro-5-(pyrimidin-5-yl)phenyl)-4,4a,5,6,7,8a-hexahydropyrano[2,3-d][1,3]thiazin-2-amine]	995
NC1=N[C@@]2(c3cc(NC(=O)c4ccccn4)ccc3F)OCC[C@H]2CS1 (racemic) [Example 5, (±)-N-(3-((4aR,7aR)-2-amino-4a,5,6,7a-tetrahydro-4H-furo[2,3-d][1,3]thiazin-7a-yl)-4-fluorophenyl)picolinamide]	856
NC1=N[C@@]2(c3cc(NC(=O)c4ccc(Cl)cn4)ccc3F)OCC[C@H]2CS1 [Example 2, N-(3-((4aR,7aR)-2-amino-4a,5,6,7a-tetrahydro-4H-furo[2,3-d][1,3]thiazin-7a-yl)-4-fluorophenyl)-5-chloropicolinamide]	24

The next lines start with the values.

IC50 [nM]	SMILES
72	N#Cc1ccc(C(=O)Nc2ccc(F)c([C@@]34N=C(N)SC[C@@H]3CCO4)c2)nc1 [Example 3, N-(3-((4aR,7aR)-2-amino-4a,5,6,7a-tetrahydro-4H-furo[2,3-d][1,3]thiazin-7a-yl)-4-fluorophenyl)-5-cyanopicolinamide]
465	NC1=N[C@@]2(c3cc(NC(=O)c4ccc(F)cn4)ccc3F)OCC[C@H]2CS1 (racemic) [Example 4, (±)-N-(3-((4aR,7aR)-2-amino-4a,5,6,7a-tetrahydro-4H-furo[2,3-d][1,3]thiazin-7a-yl)-4-fluorophenyl)-5-fluoropicolinamide]
